Structures are written as SMILES.

This note sets out measurements from a melting point compilation (Tetko et al.; mined from patent text by program, amines drawn as free bases though some values may be those of a salt).

With `O=C(Cc1ccccc1Nc1c(Cl)cccc1Cl)OCc1ccccn1`, the melting point – broadly, the temperature of the solid-liquid transition – lay in the range of 80 to 81 °C.

Consider `OC(COc1ccc(Cl)cc1)(Cn1cncn1)c1ccc(Br)s1` (stereo unspecified), for which the melting point fell in the range of 108 to 112 °C. Then `CCOP(=O)(OCC)c1nc(N(CC)CC)nc(N(CC)CC)n1`, with 45 to 46 °C. Then `CN(C)S(=O)(=O)c1ccc(C(O)c2cccc(O[Si](C)(C)C(C)(C)C)c2)cc1` (stereo unspecified), with 100 to 103 °C; and `Clc1ccc(-c2nc3cc(Cl)ccc3o2)cc1`, with 178 to 183 °C.

In turn, `CN(C)c1nc(N(C)C)nc(N(C)Cc2ccccc2O)n1` showed a melting point of 169 to 171 °C.

Take `Clc1nn2cnnc2c2c1C1CCC2CC1`: the melting point was 137 to 140 °C. `Cn1cnc(COc2nn3c(-c4cc(CO)on4)nnc3c3ccccc23)n1` had a melting point of 275 to 276 °C.

Take `CC(=O)Nc1cc(C)cc(Br)n1`: the melting point was 190 °C. Then `Cc1cc(C)c2c(c1)c(-c1ccccc1Cl)c(C(=O)O)c(=O)n2C`, with 162 to 163 °C; and `CC(C)COC(=O)Nc1cccc(Cn2ccc3cc(C(=O)O)ccc32)c1`, with 173 to 176 °C. Then `Cc1ccc(NCCSC#N)c([N+](=O)[O-])c1`, with 123 to 125 °C; and `CCNC(=O)C(=O)NCC(OCC)OCC`, with 131 to 132 °C. Then `C=CCc1ccc(OCC2CCCO2)c2c(=O)cc(C(N)=O)oc12` (stereo unspecified), with 212 to 214 °C; and `COC(=O)CSC=C1C(=O)OC(C)(C)OC1=O`, with 117 to 118 °C; and `Cc1ccc(C(=O)Nc2cc(F)ccc2F)cc1`, with 108 to 110 °C. `COC(=O)c1c(-c2ccccc2F)c2cc(OCc3ccccc3)ccc2c(=O)n1CC(C)C` showed a melting point of 106 to 107 °C.

For `O=C(O)Cc1ccc(-c2cn3ccsc3n2)cc1`, the melting point lay in the range of 248 to 249 °C. `O=C(O)c1cc(Oc2ccccc2)ccc1O` had a melting point of 126 to 128 °C. Then `COC(=O)[C@@H]1[C@@H](O)CCN1C(=O)Nc1ccc(C#N)c(Cl)c1C`, with 189 to 191 °C. As to `COC(=O)CC(NC(=O)OC(C)(C)C)c1ccc(O)cc1` (stereo unspecified), the melting point lay within 119 to 120 °C.

On to `O=C(O)C=Cc1cc(OCc2ccccc2)cc(OCc2ccccc2)c1`, for which the melting point was in the range of 154 to 156 °C.

Regarding `COc1cc2c(cc1Cl)CCNC[C@H]2c1ccccc1`, the melting point lay in the range of 81 to 82 °C. Then `CCOC(=O)C(C#N)=Cc1c(Cl)n(Cc2ccc(Cl)cc2)c2ccccc12`, with 179 to 180 °C; and `Cn1c2c(c3ccccc31)Cc1ccccc1-2`, with 152 °C; and `Cc1cc(N2CCCCCC2)c2ccc(NCc3ccc(C(F)(F)F)cc3)cc2n1`, with 90 to 93 °C. The molecule `CS(=O)(=O)Nc1ccc(-c2ccc(C(=O)NCCCCN3CCC(c4ccc5c(c4OCCO)CCCC5)CC3)cc2)cc1` registered a melting point of 216 °C. Then `CCOP(=O)(COCCOn1cnc2c(N)ncnc21)OCC`, with 74 to 76 °C. As to `O=C(Nc1ccccc1C(=O)NCCc1ncc[nH]1)c1ccc(-c2ccccc2)cc1`, the melting point lay in the range of 197 to 201 °C.

The molecule `COC(=O)C(Cc1ccc(OCCN(C)c2nc3ccccc3o2)cc1)OCC(=O)O` (stereo unspecified) displayed a melting point of 154 to 155 °C. For `COc1cc(CO)ccc1C12CC3CC(CC(C3)C1)C2`, the melting point is 120 to 121 °C. `COc1ccc(CC(C(=O)Nc2nc3ccccc3o2)c2ccc(S(C)(=O)=O)cc2)cc1` (stereo unspecified) gave a melting point of 102 to 106 °C. Then `CCOC(=O)N1CCN(C2=C(O)C(=O)c3ccccc3C2=O)CC1`, with 115 to 118 °C. For the molecule `Cc1csc2cc(C(=O)O)ccc12`, the melting point lay in the range of 230 to 232 °C. The value for `N#CCCN1C(=O)C2(OCCCO2)c2ccc(Cl)cc21` was 163 to 164 °C; that for `Fc1cccc(NC2CN([C@H]3CC[C@@H](c4c[nH]c5ccc(F)cc54)CC3)C2)c1` was 67 to 70 °C; that for `CCCC1C(C(=O)OCC)C(O)(C(F)(F)F)NC(O)(C(F)(F)F)C1C(=O)OCC` (stereo unspecified) was 140 to 142 °C. Then `CCOC(=O)C=C(NNc1c(C)cc(C)c([N+](=O)[O-])c1C)OC`, with 82 to 83 °C. `Cc1cnc(-c2ccc(Cl)s2)nc1Cl` had a melting point of 137 °C.

Regarding `COc1cc(C#N)ccc1C1=CC(C)(C)Oc2ccc(C#N)cc21`, the melting point lay in the range of 137 to 139 °C. For `c1ccc(-c2cn3c(nc4ccccc43)s2)nc1`, the melting point lay within 222 to 224 °C. In turn, `Clc1ccc(Cc2ccc(-c3ccccc3)cc2)cc1` gave a melting point of 96 °C. Regarding `COCCOc1cc2ncnc(NC3=CC(=O)C(Oc4ccccc4C)=CC3=O)c2cc1OC`, the melting point fell in the range of 134 to 137 °C. On to `CCOCCc1ccc(OCCNc2nc(C)nc(C)c2Cl)c(C)c1`, for which the melting point lay in the range of 61 to 63 °C.

Take `Cc1c(C)c(OCC(=O)N2CCN(c3ccc(N=C(N)c4cccs4)cc3)CC2)c(C)c(C)c1O`: the melting point lay in the range of 210 to 212 °C. The value for `CN1C(=O)C(C)(C)N=C(c2ccccc2F)c2cc(NC(=O)C(C)(C)N)ccc21` was 250 °C.

As to `Nc1ncnc2c1nc(O)n2CCc1ccccc1`, the melting point lay within 256 to 258 °C. Then `CCOC(=O)C(OCc1ccccc1)C(=O)c1cc(Cl)ccc1OCc1ccccc1` (stereo unspecified), with 64 to 65 °C; and `OC(Cn1cncn1)(Cn1ncnc1C=Cc1ccc(Cl)cc1)c1ccc(Cl)cc1Cl` (stereo unspecified), with 193 to 196 °C; and `CC(=O)Nc1ccc(OC2CCC3C4CCC5N(C)C(=O)CCC5(C)C4CCC23C)cc1` (stereo unspecified), with 340 °C.

`COc1ccc(OC)c2[nH]c(-c3ccccc3)nc12`: the melting point lay within 226 to 227 °C.

`COc1c(C)c(N2CCN(c3ccc(C)cc3)CC2)c(C)c2c1OC(C)(C)C2`: the melting point was 150 to 152 °C.

Take `CC(=O)OC1C=C(C)C(=O)CC(C)(C)C1OC(C)=O` (stereo unspecified): the melting point was in the range of 68 to 69 °C. The value for `COc1ccccc1CN[C@H]1CCCN[C@H]1c1ccoc1` (relative stereo) was greater than 247 °C. Then `COC(=O)C1=C(C)NC(O)=C(C(=O)OC)C1c1cccc([N+](=O)[O-])c1` (stereo unspecified), with 150 to 152 °C. In turn, `CCC1(C)OC(c2ccc(S(C)(=O)=O)cc2)=C(c2cc(F)cc(F)c2)C1=O` (stereo unspecified) displayed a melting point of 122 to 124 °C.

Consider `CC1(c2ccc(O)c(Br)c2)C(=O)Nc2cc(Cl)cc(Cl)c2C1=O` (stereo unspecified), for which the melting point fell in the range of 228 to 229 °C.

On to `CC(c1cccnc1)C(O)(Cn1cncn1)c1ccc(F)cc1F` (stereo unspecified), for which the melting point lay in the range of 113 to 114 °C. The value for `COc1ccc(O[C@@H]2CN(Cc3ccccc3)C[C@H]2O)cc1` (relative stereo) was 84 to 85 °C. The value for `COc1ccc(OC)c2nccnc12` was 145 to 150 °C; that for `CC(=O)Nc1cccc(C(=O)c2[nH]c3cc(Cl)ccc3c2NC(C)=O)c1` was 225 to 228 °C. As to `O=C(O)CCCCN(Cc1ccccc1)Cc1ccccc1`, the melting point lay in the range of 202 to 205 °C. The molecule `O=C1OC(=O)C(c2ccc(Cl)cc2)=C1Cl` registered a melting point of 110 to 112 °C. As to `Cc1cc(OC(=O)N(C)SSC(C)(C)C)cc(C)c1N=Cc1ccccc1O`, the melting point fell in the range of 121 to 124 °C. As for `COc1ccccc1N1CCN(CCn2cnc3c(c2=O)CN(Cc2ccccc2)CC3)CC1`, the melting point is 200 °C. The value for `COC(C(=O)O)C(=O)Oc1cccc(-c2cn3c(n2)sc2ccccc23)c1` (stereo unspecified) was 110 to 113 °C. Then `CC(CC(C)(C)OOC(=O)NC1CCCCC1)OC(=O)NC1CCCCC1` (stereo unspecified), with 224 to 226 °C; and `OCCc1cc(-c2ccc(Cl)cc2)no1`, with 65.5 to 67.5 °C; and `Nc1cc(F)nc(F)c1F`, with 94 to 96 °C. The value for `CCOC(=O)c1[nH]c2cc(Br)c(Cl)cc2c1-c1ccccc1F` was 193 to 194 °C; that for `CC(C)(C)OC(=O)Nc1ccc(C#Cc2nccs2)cc1[N+](=O)[O-]` was 137 °C; that for `COc1cc2ncc(C#N)c(Nc3ccc(Cl)c(C(F)(F)F)c3)c2cc1OC` was 265 to 267 °C.

As to `COC(c1cc(C)c(OCC(=O)O)c(C)c1)(C(F)(F)F)C(F)(F)F`, the melting point lay in the range of 105 to 108 °C.

Consider `CCn1cc(/C=C/c2cn(-c3ccccc3)nc2OCc2ccc(OCc3nc(-c4ccc(CC(=O)O)cc4)oc3C)c(OC)c2)cn1`, for which the melting point is 146 to 147 °C.

`CCOC(=O)/C=C(C)/C=C/C1=C(Br)CCC1` had a melting point of 85 to 86 °C.

`O=S(=O)(c1ccccc1)N1CCC(C(=NCCc2ccccc2)c2ccc(F)cc2)CC1`: the melting point was in the range of 123 to 126 °C. The molecule `N#CC(N=C(c1ccccc1)c1ccccc1)c1ncc(C(F)(F)F)cc1Cl` (stereo unspecified) had a melting point of 105 to 108 °C. `CC(=O)Nc1ccc2oc3c(c2c1)CCCC3` came in with a melting point of 196 to 198 °C. The value for `CCc1csc(Cc2ccc(NC(=O)/C=C/c3cnn(C)c3-c3ccc(F)cc3)cc2)n1` was 211 to 212 °C. In turn, `N#Cc1cccc2c1C(=O)C(OCc1ccccc1)=C(OCc1ccccc1)C2=O` gave a melting point of 118 to 121 °C. `CC(C)CC1(CCCCN2CCc3sccc3C2)C(=O)Nc2ccccc21` (stereo unspecified): the melting point lay within 114 to 116 °C. The value for `Cc1cc2[nH]c(=O)c3cnccc3n2n1` was greater than 300 °C.

In turn, `O=C1NC(=O)c2c(Cl)cccc21` came in with a melting point of 236 to 238 °C. Then `C=CCN(CC=C)Cc1csc(-c2ncn3c2[C@@H]2CCCN2C(=O)c2c(Cl)cccc2-3)n1`, with 186 to 187 °C; and `NC1=NCc2c[nH]c3cccc1c23`, with 233 to 235 °C.

`C#CCN(c1ccc(C(=O)O)cc1)C1CCc2cc3nc(C)[nH]c(=O)c3cc21` (racemic) had a melting point of 264 °C. With `O=C(Cc1csc(Nc2ccccc2)n1)NC1CCN(Cc2ccc(Cl)c(Cl)c2)CC1`, the melting point fell in the range of 191 to 192 °C.

For the molecule `C#CCOc1ccc(/C=C/c2nc3ccccc3c(=O)o2)cc1OC`, the melting point fell in the range of 177 to 178 °C.

In the case of `CN(C)CCNC(=O)N1CCC(S(=O)(=O)c2ccc(Cl)cc2)C1` (stereo unspecified), the melting point is 131 to 132 °C. Then `CN(CCCC(C(N)=O)(c1ccccc1)c1ccccc1)CCc1ccccn1`, with 134 to 136 °C; and `CCCCc1nc2c(N)nc3ccccc3c2n1CCCNC(=S)Nc1ccccc1`, with 143 to 144 °C.
